Patent US11014934B2, “Antiseptic drug” (AO “TATKHIMFARMPREPARATY”, priority 2017, dated 2021)

Assays:
clinical staphylococci = assay: MIC screening, summary for clinical staphylococci; type: cell-based; details: range over clinical staphylococci, one strain excepted
Procedure: (§1) A comparative assessment of the spectrum of antibacterial action was carried out on archival and clinical strains of gram-positive and gram-negative microorganisms in accordance with the [Opredeleniye chuvstvitel'nosti mikroorganizmov k antibakterial'nym preparatam (Metodicheskiye ukazaniya MUK 4.2.1890-04). Utverzhdeny i vvedeny v deystviye Glavnym gosudarstvennym sanitarnym vrachom Rossiyskoy Federatsii G. G. Onishchenko 04.03.2004 g. Determination of the sensitivity of microorganisms to antibacterial drugs (Guidelines MUK 4.2.1890-04). Approved and put into effect by the Chief State Sanitary Doctor of the Russian Federation G. G. Onishchenko on 4 Mar. 2004].
(§2) The value of the minimum inhibitory concentration (MIC) was determined by the method of serial dilutions on Müller-Hinton broth using 96-well sterile plates. […] The growth of cultures was assessed visually, comparing the growth of microorganisms in the presence of test compounds with the growth of culture without them. […] The first lowest concentration of the studied substance (from a series of consecutive dilutions), where bacterial growth is not visually determined, is considered to be the minimum inhibitory concentration (MIC). MIC was determined by the method of serial dilutions in broth with increment=2, so the differences of neighboring dilutions are not considered to be significant. […]

clinical enterococci = assay: MIC screening, summary for clinical enterococci; type: cell-based; details: range over clinical enterococci
Procedure: as §1, §2

E. coli in the biofilm = assay: Antibacterial activity against cells immersed in a biofilm matrix (CFU, drop plate); type: cell-based
Procedure: (§3) To determine the effectiveness of the antibiotic against bacteria in […], bacteria were grown in Basal medium for 3 days at a temperature of 37° C. without swinging to obtain a dense biofilm [A. R Kayumov, Khakimullina E., Sharafutdinov I, Trizna E., Latypova L., Lien Thi, Margulis A., Bogachev M, Kurbangalieva A. Inhibition of biofilm formation in Bacillus subtilis by new halogenated furanoses. J. Antibiotics.—2014.—V. 68.—No 5.—P. 297-301.]. Then the biofilm was washed with a sterile 0.9% NaCl solution and fresh sterile medium was poured. Antiseptics were added to concentrations (1-16)×MBC (minimum bactericidal concentration) and incubated for 24 hours. Then the culture fluid was removed from the wells, washed once with 0.9% NaCl solution to remove non-adherent cells, and cell viability in biofilms was evaluated by counting CFU by Drop plate analysis [B. Herigstad, M Hamilton, J. Heersink How to optimize the drop plate method for enumerating bacteria. J Microbiol Methods.—2001.—V. 44.—P. 121-129]. To do this, the biofilm was mechanically removed from the surface and homogenized in 0.9% NaCl by pipetting and ultrasonic treatment. Then, serial 10-fold dilutions of the bacterial suspension in 0.9% NaCl were prepared, and 5 μI of each suspension were transferred to plates with dense nutrient medium. CFU was counted from drops containing 5-10 colonies.
(§4) The results of the study of antimicrobial activity against cells of the studied strains immersed in the biofilm matrix, in comparison with miramistin and benzalkonium chloride, are presented in FIGS. 1 and 2.

[1] = test system: K. pneumonia in the biofilm; assay: as above; type: cell-based
Procedure: as §3, §4

[2] = test system: S.marcescens in the biofilm; assay: as above; type: cell-based
Procedure: as §3, §4

[3] = Acute toxicity in mice after intragastric administration; type: in vivo; details: both sexes, mouse, in vivo, po; Mice CD-1, intragastric administration; read-out: LD50 (95% confidence interval)
Procedure: (§5) The study was performed on mice of the CD-1 (ICR) line (6-8 weeks, weight not less than 18 g) of both sexes. […] Mice administered doses were 3000 mg/kg, 2000 mg/kg, 1000 mg/kg, 500 mg/kg and 50 mg/kg.

[4] = test system: mice of the CD-1 (ICR) line; assay: as above; type: in vivo
Procedure: as §5

[5] = both, CD-1 (ICR), mouse, in vivo

For `CCCCCCCCCCCC[N+](C)(C)Cc1cnc(C[N+](C)(C)CCCCCCCCCCCC)c2c1COC(CC)O2` (stereo not drawn) [Compound I, 5,8-(Bis(methylene (N, N-dimethyl-N-dodecylammonium))-2-ethyl-4H-[1,3]dioxino [4,5-c]pyridiniumdichloride], the MIC (clinical staphylococci) was 1 to 8 µg/mL, the “MIC for clinical enterococci” value (clinical enterococci) was 0.03 to 4 µg and the “activity in the biofilm compared with comparison antiseptics” value (E. coli in the biofilm) was “the same activity as miramistine and benzalconium chloride”. The “activity in the biofilm compared with comparison antiseptics” value [1] was “the same activity as miramistine and benzalconium chloride”, the “activity in the biofilm compared with comparison antiseptics” value [2] was “the same activity as miramistine and benzalconium chloride” and the LD50 [3] was 1710 mg/kg. The “hazard class in accordance with GOST 12.1.007-76” value ([4]; acute toxicity, oral, mice) was 3rd class of moderately hazardous harmful substances, the “toxicity class according to the Globally Harmonized System (GOST 32644-2014)” value ([4]; acute toxicity, oral, mice) was 4th toxicity class and the LD16 [4, 5] was 788 mg/kg. The LD86 [4, 5] was 2623 mg/kg, the “Number of died animals in the group” value ([4]; both, CD-1 (ICR), mouse, in vivo, 50 mg/kg) was 0/6 and the “Number of died animals in the group” value ([4]; both, CD-1 (ICR), mouse, in vivo, 500 mg/kg) was 0/6. For the same compound, the “Number of died animals in the group” value ([4]; both, CD-1 (ICR), mouse, in vivo, 1000 mg/kg) was 3/6, the “Number of died animals in the group” value ([4]; both, CD-1 (ICR), mouse, in vivo, 2000 mg/kg) was 5/10 and the “Number of died animals in the group” value ([4]; both, CD-1 (ICR), mouse, in vivo, 3000 mg/kg) was 4/4.
